Results taken from patent US20230172204A1 (BASF SE, priority 2020, published 2023).

How the values were obtained:
[1] = system: Phakopsora pachyrhizi (F129L); assay: Protective control of soybean rust on soybeans (PHAKPA P2); format: in vivo; conditions: soybean rust F129L; for % PHAKPA (F129L) Disease level P2 at 4 ppm: protective P2, 4 ppm; for % PHAKPA (F129L) Disease level P2 at 16 ppm: protective P2, 16 ppm
[2] = system: Phakopsora pachyrhizi (F129L); assay: Protective control of soybean rust on soybeans (PHAKPA P6); format: in vivo; conditions: soybean rust F129L; for % PHAKPA (F129L) Disease level P6 at 4 ppm: protective P6, 4 ppm; for % PHAKPA (F129L) Disease level P6 at 16 ppm: protective P6, 16 ppm

| SMILES | % PHAKPA (F129L) Disease level P2 at 4 ppm [1] [%] | % PHAKPA (F129L) Disease level P2 at 16 ppm [1] [%] | % PHAKPA (F129L) Disease level P6 at 4 ppm [2] [%] | % PHAKPA (F129L) Disease level P6 at 16 ppm [2] [%] |
| --- | --- | --- | --- | --- |
| C#Cc1cc(/C(C)=N/OCc2c(C)cccc2/C(=N\OC)C(=O)OC)cc(C(F)(F)F)c1 [compound 143] | 4 | 0 | 15 | 0 |
| CO/N=C(/C(=O)OC)c1cccc(C)c1CO/N=C(\C)c1cc(-c2ccccc2)cc(C(F)(F)F)c1 [compound 144] | 87 | 80 | 92 | 90 |
| CO/N=C(/C(=O)OC)c1cccc(C)c1CO/N=C(\C)c1cc(C2CC2)cc(C(F)(F)F)c1 [compound 145] | 28 | 8 | 37 | 16 |
| CCc1cc(/C(C)=N/OCc2c(C)cccc2/C(=N\OC)C(=O)OC)cc(C(F)(F)F)c1 [compound 146] | 73 | 12 | 77 | 48 |
| C=Cc1cc(/C(C)=N/OCc2c(C)cccc2/C(=N\OC)C(=O)OC)cc(C(F)(F)F)c1 [compound 147] | 73 | 18 | 95 | 18 |
| C#Cc1cc(/C(C)=N/OCc2c(C)cccc2/C(=N\OC)C(=O)NC)cc(C(F)(F)F)c1 [compound 148] | 9 | 2 | 13 | 7 |
| CNC(=O)/C(=N/OC)c1cccc(C)c1CO/N=C(\C)c1cc(-c2ccccc2)cc(C(F)(F)F)c1 [compound 149] | 83 | 45 | 87 | 31 |
| CNC(=O)/C(=N/OC)c1cccc(C)c1CO/N=C(\C)c1cc(C2CC2)cc(C(F)(F)F)c1 [compound 150] | 56 | 8 | 70 | 29 |
| CCc1cc(/C(C)=N/OCc2c(C)cccc2/C(=N\OC)C(=O)NC)cc(C(F)(F)F)c1 [compound 151] | 37 | 3 | 53 | 6 |
| C=Cc1cc(/C(C)=N/OCc2c(C)cccc2/C(=N\OC)C(=O)NC)cc(C(F)(F)F)c1 [compound 152] | 24 | 1 | 38 | 7 |
| CO/N=C(/C(=O)OC)c1cccc(C)c1CO/N=C(\C)c1c(F)ccc(C(F)(F)F)c1F [compound 156] | 27 | 0 | 47 | 3 |
| CO/N=C(/C(=O)OC)c1cccc(C)c1CO/N=C(\C)c1cccc(CC2COC2)c1 [compound 160] | 100 | 97 | 87 | 90 |
| CNC(=O)/C(=N/OC)c1cccc(C)c1CO/N=C(\C)c1cccc(CC2COC2)c1 [compound 161] | 100 | 100 | 100 | 90 |
| CNC(=O)/C(=N/OC)c1cccc(C)c1CO/N=C(\C)c1c(F)ccc(C(F)(F)F)c1F [compound 162] | 0 | 0 | 1 | 0 |
| CO/N=C(/C(=O)OC)c1cccc(C)c1CO/N=C(\C)c1ccc(C)c(Cl)c1 [compound 163] | 20 | 1 | 47 | 9 |
| CNC(=O)/C(=N/OC)c1cccc(C)c1CO/N=C(\C)c1ccc(OC)cc1 [compound 164] | 5 | 0 | 27 | 0 |
| CO/N=C(/C(=O)OC)c1cccc(C)c1CO/N=C(\C)c1ccc(C(C)=O)cc1 [compound 166] | 100 | 83 | 90 | 43 |
| CNC(=O)/C(=N/OC)c1cccc(C)c1CO/N=C(\C)c1cc(Cl)cc(Cl)c1F [compound 167] | 2 | 0 | 9 | 0 |
